In US5672715A, “Herbicidal substituted 3-aryl-pyrazoles” (Monsanto Company, priority 1995, dated 1997):
Where two headings read alike, the source gives them in different places.

What was measured:
Assay type in all cases: in vivo
Morning Glory [1] = assay: pre-emergence herbicide test; conditions: Ipomoea, pre-emergence, read-out: % plant inhibition
Procedure, shortened: (§1)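 Seeds were sown on compacted topsoil in pans and covered with a topsoil layer carrying a known amount of active ingredient in acetone or water, applied before or after covering. Pans were bottom-watered on a greenhouse bench, and % inhibition was scored about 14 days after seeding and treatment.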

Velvetleaf [2] = assay: pre-emergence herbicide test; conditions: Abutilon theophrasti, pre-emergence, read-out: % plant inhibition
Procedure, shortened: as §1

Yellow Foxtail [3] = assay: pre-emergence herbicide test; conditions: Setaria, read-out: % plant inhibition
Procedure, shortened: as §1

Yellow Nutsedge [4] = assay: pre-emergence herbicide test; conditions: Cyperus, read-out: % plant inhibition
Procedure, shortened: as §1

Morning Glory [5] = assay: post-emergence herbicide test; conditions: Ipomoea, post-emergence, read-out: % plant inhibition
Procedure, shortened: (§2)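 Activity is given as percent inhibition of each species following foliar application. Pots were sprayed individually in a chamber once plants reached two to three weeks.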

Velvetleaf [6] = assay: post-emergence herbicide test; conditions: Abutilon theophrasti, post-emergence, read-out: % plant inhibition
Procedure, shortened: as §2

Soybean = assay: post-emergence herbicide test; conditions: Glycine max, post-emergence, read-out: % plant inhibition
Procedure, shortened: as §2

Corn = assay: post-emergence herbicide test; conditions: Zea mays, post-emergence, read-out: % plant inhibition
Procedure, shortened: as §2

Wheat = assay: post-emergence herbicide test; conditions: Triticum aestivum, post-emergence, read-out: % plant inhibition
Procedure, shortened: as §2

Barnyardgrass = assay: post-emergence herbicide test; conditions: Echinochloa crus-galli, post-emergence, read-out: % plant inhibition
Procedure, shortened: as §2

Common Chickweed = assay: post-emergence herbicide test; conditions: post-emergence, read-out: % plant inhibition
Procedure, shortened: as §2

Bedstraw Catchweed = assay: post-emergence herbicide test; conditions: Galium aparine, post-emergence, read-out: % plant inhibition
Procedure, shortened: as §2

Yellow Foxtail [7] = assay: post-emergence herbicide test; conditions: Setaria, read-out: % plant inhibition
Procedure, shortened: as §2

Cocklebur = assay: post-emergence herbicide test; conditions: Xanthium strumarium, post-emergence, read-out: % plant inhibition
Procedure, shortened: as §2

Blackgrass = assay: post-emergence herbicide test; conditions: Alopecurus myosuroides, post-emergence, read-out: % plant inhibition; for inhibition at 7.95803 g/ha: 0.0071 lb/A; for inhibition at 40.0143 g/ha: 0.0357 lb/A; for inhibition at 200.072 g/ha: 0.1785 lb/A; for inhibition at 1000.92 g/ha: 0.893 lb/A
Procedure, shortened: as §2

Yellow Nutsedge [8] = assay: post-emergence herbicide test; conditions: Cyperus, read-out: % plant inhibition
Procedure, shortened: as §2

## Cc1c(-c2cc(OCC(=O)OC(C)C)c(Cl)cc2F)nn(C)c1C(F)(F)F [Compound 38]
Morning Glory [1]; 0.0071 lb/A
  inhibition at 7.95803 g/ha: 20%
Morning Glory [1]; 0.0357 lb/A
  inhibition at 40.0143 g/ha: 75%
Morning Glory [1]; 0.1785 lb/A
  inhibition at 200.072 g/ha: 95%
Morning Glory [1]; 0.25 lb/A
  inhibition at 280.212 g/ha: 100%
Morning Glory [1]; 0.893 lb/A
  inhibition at 1000.92 g/ha: 100%
Velvetleaf [2]; 0.0071 lb/A
  inhibition at 7.95803 g/ha: 100%
Velvetleaf [2]; 0.0357 lb/A
  inhibition at 40.0143 g/ha: 80%
Velvetleaf [2]; 0.1785 lb/A
  inhibition at 200.072 g/ha: 98%
Velvetleaf [2]; 0.25 lb/A
  inhibition at 280.212 g/ha: 100%
Velvetleaf [2]; 0.893 lb/A
  inhibition at 1000.92 g/ha: 100%
Yellow Foxtail [3]; 0.0071 lb/A
  inhibition at 7.95803 g/ha: 0%
Yellow Foxtail [3]; 0.0357 lb/A
  inhibition at 40.0143 g/ha: 0%
Yellow Foxtail [3]; 0.1785 lb/A
  inhibition at 200.072 g/ha: 25%
Yellow Foxtail [3]; 0.25 lb/A
  inhibition at 280.212 g/ha: 40%
Yellow Foxtail [3]; 0.893 lb/A
  inhibition at 1000.92 g/ha: 65%
Yellow Nutsedge [4]; 0.0071 lb/A
  inhibition at 7.95803 g/ha: 0%
Yellow Nutsedge [4]; 0.0357 lb/A
  inhibition at 40.0143 g/ha: 20%
Yellow Nutsedge [4]; 0.1785 lb/A
  inhibition at 200.072 g/ha: 0%
Yellow Nutsedge [4]; 0.893 lb/A
  inhibition at 1000.92 g/ha: 85%
Morning Glory [5]; 0.0071 lb/A
  inhibition at 7.95803 g/ha: 80%
Morning Glory [5]; 0.0357 lb/A
  inhibition at 40.0143 g/ha: 100%
Morning Glory [5]; 0.1785 lb/A
  inhibition at 200.072 g/ha: 100%
Morning Glory [5]; 0.25 lb/A
  inhibition at 280.212 g/ha: 95%
Morning Glory [5]; 0.893 lb/A
  inhibition at 1000.92 g/ha: 100%
Velvetleaf [6]; 0.0071 lb/A
  inhibition at 7.95803 g/ha: 65%
Velvetleaf [6]; 0.0357 lb/A
  inhibition at 40.0143 g/ha: 100%
Velvetleaf [6]; 0.1785 lb/A
  inhibition at 200.072 g/ha: 100%
Velvetleaf [6]; 0.25 lb/A
  inhibition at 280.212 g/ha: 100%
Velvetleaf [6]; 0.893 lb/A
  inhibition at 1000.92 g/ha: 100%
Soybean; 0.0071 lb/A
  inhibition at 7.95803 g/ha: 10%
Soybean; 0.0357 lb/A
  inhibition at 40.0143 g/ha: 20%
Soybean; 0.1785 lb/A
  inhibition at 200.072 g/ha: 30%
Soybean; 0.25 lb/A
  inhibition at 280.212 g/ha: 15%
Soybean; 0.893 lb/A
  inhibition at 1000.92 g/ha: 25%
Corn; 0.0071 lb/A
  inhibition at 7.95803 g/ha: 5%
Corn; 0.0357 lb/A
  inhibition at 40.0143 g/ha: 10%
Corn; 0.1785 lb/A
  inhibition at 200.072 g/ha: 25%
Corn; 0.25 lb/A
  inhibition at 280.212 g/ha: 10%
Corn; 0.893 lb/A
  inhibition at 1000.92 g/ha: 25%
Wheat; 0.0071 lb/A
  inhibition at 7.95803 g/ha: 10%
Wheat; 0.0357 lb/A
  inhibition at 40.0143 g/ha: 10%
Wheat; 0.1785 lb/A
  inhibition at 200.072 g/ha: 10%
Wheat; 0.893 lb/A
  inhibition at 1000.92 g/ha: 10%
Barnyardgrass; 0.0071 lb/A
  inhibition at 7.95803 g/ha: 10%
Barnyardgrass; 0.0357 lb/A
  inhibition at 40.0143 g/ha: 10%
Barnyardgrass; 0.1785 lb/A
  inhibition at 200.072 g/ha: 15%
Barnyardgrass; 0.893 lb/A
  inhibition at 1000.92 g/ha: 15%
Common Chickweed; 0.0071 lb/A
  inhibition at 7.95803 g/ha: 65%
Common Chickweed; 0.0357 lb/A
  inhibition at 40.0143 g/ha: 75%
Common Chickweed; 0.1785 lb/A
  inhibition at 200.072 g/ha: 95%
Common Chickweed; 0.893 lb/A
  inhibition at 1000.92 g/ha: 98%
Bedstraw Catchweed; 0.0071 lb/A
  inhibition at 7.95803 g/ha: 35%
Bedstraw Catchweed; 0.0357 lb/A
  inhibition at 40.0143 g/ha: 85%
Bedstraw Catchweed; 0.1785 lb/A
  inhibition at 200.072 g/ha: 90%
Bedstraw Catchweed; 0.893 lb/A
  inhibition at 1000.92 g/ha: 85%
Yellow Foxtail [7]; 0.0071 lb/A
  inhibition at 7.95803 g/ha: 0%
Yellow Foxtail [7]; 0.0357 lb/A
  inhibition at 40.0143 g/ha: 35%
Yellow Foxtail [7]; 0.1785 lb/A
  inhibition at 200.072 g/ha: 10%
Yellow Foxtail [7]; 0.893 lb/A
  inhibition at 1000.92 g/ha: 15%
Cocklebur; 0.0071 lb/A
  inhibition at 7.95803 g/ha: 80%
Cocklebur; 0.0357 lb/A
  inhibition at 40.0143 g/ha: 80%
Cocklebur; 0.1785 lb/A
  inhibition at 200.072 g/ha: 80%
Cocklebur; 0.25 lb/A
  inhibition at 280.212 g/ha: 100%
Cocklebur; 0.893 lb/A
  inhibition at 1000.92 g/ha: 100%
Blackgrass; Table 4a
  inhibition at 7.95803 g/ha: 0%
  inhibition at 40.0143 g/ha: 0%
  inhibition at 200.072 g/ha: 10%
  inhibition at 1000.92 g/ha: 0%
Blackgrass; Table 5a
  inhibition at 7.95803 g/ha: 0%
  inhibition at 40.0143 g/ha: 25%
  inhibition at 200.072 g/ha: 30%
  inhibition at 1000.92 g/ha: 5%
Yellow Nutsedge [8]; 0.0071 lb/A
  inhibition at 7.95803 g/ha: 35%
Yellow Nutsedge [8]; 0.0357 lb/A
  inhibition at 40.0143 g/ha: 25%
Yellow Nutsedge [8]; 0.1785 lb/A
  inhibition at 200.072 g/ha: 25%
Yellow Nutsedge [8]; 0.893 lb/A
  inhibition at 1000.92 g/ha: 25%
